From article PMC7589583, “Hydroxylation of Antitubercular Drug Candidate, SQ109, by Mycobacterial Cytochrome P450” (International Journal of Molecular Sciences, 2020)

Columns and labels:
Type in all cases: binding
[1] = biological target: T1, CYP125 (Rv3545c, CYP125A1) (Mycobacterium tuberculosis, UniProt P9WPP1); assay: biochemical
T1 sequence (P9WPP1 1-433): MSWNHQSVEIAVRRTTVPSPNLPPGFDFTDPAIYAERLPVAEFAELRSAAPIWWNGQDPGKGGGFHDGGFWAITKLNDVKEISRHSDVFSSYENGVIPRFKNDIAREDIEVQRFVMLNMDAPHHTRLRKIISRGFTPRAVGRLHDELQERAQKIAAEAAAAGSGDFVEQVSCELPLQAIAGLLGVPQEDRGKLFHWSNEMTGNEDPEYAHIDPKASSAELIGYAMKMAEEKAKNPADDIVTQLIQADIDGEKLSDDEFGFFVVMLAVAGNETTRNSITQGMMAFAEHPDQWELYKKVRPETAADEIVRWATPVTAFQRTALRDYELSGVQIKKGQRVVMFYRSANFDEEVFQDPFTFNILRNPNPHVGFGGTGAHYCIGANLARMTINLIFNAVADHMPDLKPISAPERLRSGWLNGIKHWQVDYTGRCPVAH

[2] = biological target: CYP142 (Rv3518c, CYP142A1) (Mycobacterium tuberculosis, UniProt P9WPL5); assay: biochemical
[3] = biological target: T2, CYP124 (Rv2266, CYP124A1) (Mycobacterium tuberculosis, UniProt P9WPP3); assay: […] Å co-crystal structure; […]; LC-MS turnover
T2 sequence (P9WPP3 1-428): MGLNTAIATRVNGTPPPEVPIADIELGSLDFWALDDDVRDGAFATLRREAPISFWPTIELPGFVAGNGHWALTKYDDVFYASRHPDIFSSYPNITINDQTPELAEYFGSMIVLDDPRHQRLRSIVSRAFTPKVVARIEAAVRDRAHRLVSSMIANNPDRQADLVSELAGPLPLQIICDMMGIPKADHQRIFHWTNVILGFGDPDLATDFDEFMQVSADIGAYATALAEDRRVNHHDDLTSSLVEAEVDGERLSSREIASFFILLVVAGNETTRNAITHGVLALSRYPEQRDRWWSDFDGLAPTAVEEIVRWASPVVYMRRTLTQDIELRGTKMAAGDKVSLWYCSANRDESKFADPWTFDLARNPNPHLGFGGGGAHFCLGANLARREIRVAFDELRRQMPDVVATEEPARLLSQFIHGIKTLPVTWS

Sequence of CYP142 (Rv3518c, CYP142A1) (P9WPL5 whole entry): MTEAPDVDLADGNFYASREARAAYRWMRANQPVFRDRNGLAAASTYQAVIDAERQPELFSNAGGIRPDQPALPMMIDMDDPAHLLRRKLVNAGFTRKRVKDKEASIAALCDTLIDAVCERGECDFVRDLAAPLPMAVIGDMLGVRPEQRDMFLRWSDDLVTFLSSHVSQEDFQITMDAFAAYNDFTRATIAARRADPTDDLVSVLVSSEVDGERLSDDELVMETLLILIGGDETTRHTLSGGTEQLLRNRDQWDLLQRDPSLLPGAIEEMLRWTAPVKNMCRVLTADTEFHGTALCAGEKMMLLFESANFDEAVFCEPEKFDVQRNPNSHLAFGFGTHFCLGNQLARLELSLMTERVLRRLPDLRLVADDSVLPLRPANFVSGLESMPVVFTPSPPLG

## CC(C)=CCC/C(C)=C\CNCCNC1C2CC3CC(C2)CC1C3 (stereo not drawn) [SQ109]
[1]
  Kd: 41 ± 3 µM
[2]
  Kd: 52 ± 11 µM
[3]
  Kd: 3.4 ± 0.3 µM
